Here are results for 16 compounds from ChEMBL document CHEMBL3734739, “Synthesis and biological evaluation of novel derivatives of gambogenic acid as anticancer agents” (Medchemcomm, 2015).

Calls of active or inactive are those of the source. The calls are words filed in the database; no cut-off is given here.

Broadly, the IC50 is the concentration that inhibits the measured activity by half. Read a high IC50 as lower potency.

For one test, the system named is A549. As to the kind of experiment: Cytotoxicity against human A549 cells by MTT assay. It is filed as functional, cell-based. (Tetrazolium assays rely on reduction of a dye to a coloured formazan, in cell work by metabolically active cells.)
In test [1] the test system is HepG2. As to the kind of experiment: Cytotoxicity against human HepG2 cells by MTT assay. It is filed as functional, cell-based.
The nature of test [2]: Cytotoxicity against human PANC1 cells by MTT assay. It is filed as functional, cell-based. The following applies: PANC-1.
A further test deals with U-251. As to the kind of experiment: Cytotoxicity against human U251 cells by MTT assay. In kind it is functional, cell-based.
The subject of test [3] is HepG2. Description: Induction of apoptosis in human HepG2 cells at […] to 1.25 uM after 48 hrs by annexin V/propidium iodide staining-based flow cytometric analysis relative to control. It is filed as functional, cell-based.
In test [4] the test system is HepG2. As to the kind of experiment: Induction of apoptosis in human HepG2 cells assessed as ratio of Bcl2/Bax at 0.3125 uM after 72 hrs by western blot analysis. It is filed as functional. On the technique in general: A western blot detects proteins with antibodies after separation by electrophoresis.
Test [5] relates to HepG2. As to the kind of experiment: Induction of apoptosis in human HepG2 cells assessed as ratio of Bcl2/Bax at 0.625 uM after 72 hrs by western blot analysis. It is filed as functional.
Test [6] concerns HepG2. As to the kind of experiment: Induction of apoptosis in human HepG2 cells assessed as ratio of Bcl2/Bax at 1.25 uM after 72 hrs by western blot analysis. It is filed as functional.
Test [7] concerns HepG2. As to the kind of experiment: Cell cycle arrest in human HepG2 cells at 0.3125 to 1.25 uM by propidium iodide staining based flow cytometric analysis. In kind it is functional. The following applies: TDE = time-dependent effect.
In test [8] the test system is HepG2. As to the kind of experiment: Cell cycle arrest in human HepG2 cells after 24 hrs by propidium iodide staining based flow cytometric analysis. In kind it is functional. (In general: In flow cytometry, cells or beads pass a laser one at a time.)
In test [9] the test system is HepG2. Description: Cell cycle arrest in human HepG2 cells assessed as accumulation at S phase at 0.3125 to 1.25 uM by propidium iodide staining based flow cytometric analysis. It is filed as functional.

Take `CCN(CC)CCCOC(=O)/C(C)=C\C[C@@]12OC(C)(C)[C@H]3C[C@@H](C=C4C(=O)c5c(O)c(C/C=C(\C)CCC=C(C)C)c(O)c(CC=C(C)C)c5O[C@]431)C2=O`: the IC50 in the test on A549 came out at 2940 nM; with HepG2 [1], 2640 nM; in test [2], 2850 nM; in the test with U-251 it was 2050 nM.
For `CC(C)=CCC/C(C)=C/Cc1c(O)c(CC=C(C)C)c2c(c1O)C(=O)C1=C[C@@H]3C[C@H]4C(C)(C)O[C@@](C/C=C(/C)C(=O)OCCCCN5CCN(CCO)CC5)(C3=O)[C@@]14O2`, the IC50 with A549 turned out to be 9530 nM; with HepG2 [1], 570 nM; in [2] it was 790 nM; with U-251 it was 1460 nM.
The like results for `CC(C)=CCC/C(C)=C/Cc1c(O)c(CC=C(C)C)c2c(c1O)C(=O)C1=C[C@@H]3C[C@@H]4C(C)(C)O[C@@](C/C=C(/C)C(=O)OCCCCN5CCCCC5)(C3=O)[C@@]14O2` were, in that order, 3430 nM, 3920 nM, 4430 nM and 2780 nM.
On the same counts, the results for `CC(C)=CCC/C(C)=C/Cc1c(O)c(CC=C(C)C)c2c(c1O)C(=O)C1=C[C@H]3C[C@H]4C(C)(C)O[C@](C/C=C(/C)C(=O)OCCCN5CCOCC5)(C3=O)[C@]14O2` are 1300 nM, 5790 nM, 2360 nM and 3310 nM.
On the same counts, the results for `CC(C)=CCC/C(C)=C/Cc1c(O)c(CC=C(C)C)c2c(c1O)C(=O)C1=C[C@H]3C[C@H]4C(C)(C)O[C@](C/C=C(/C)C(=O)OCCCN5CCN(CCO)CC5)(C3=O)[C@]14O2` are 1510 nM, 2750 nM, 2520 nM and 1180 nM.
For `CC(C)=CCC/C(C)=C/Cc1c(O)c(CC=C(C)C)c2c(c1O)C(=O)C1=C[C@@H]3C[C@@H]4C(C)(C)O[C@@](C/C=C(/C)C(=O)OCCN5CCN(C)CC5)(C3=O)[C@@]14O2`, the IC50 is 1610 nM with A549, 2830 nM with HepG2 [1], 2610 nM in [2] and 3450 nM in the test with U-251.
The like results for `CC(C)=CCC/C(C)=C/Cc1c(O)c(CC=C(C)C)c2c(c1O)C(=O)C1=C[C@H]3C[C@H]4C(C)(C)O[C@](C/C=C(/C)C(=O)OCCN5CCCCC5)(C3=O)[C@]14O2` were, in that order, 1550 nM, 970 nM, 1890 nM and 4930 nM.
On the same counts, the results for `CCN(CC)CCOC(=O)/C(C)=C\C[C@@]12OC(C)(C)[C@H]3C[C@@H](C=C4C(=O)c5c(O)c(C/C=C(\C)CCC=C(C)C)c(O)c(CC=C(C)C)c5O[C@]431)C2=O` are 1410 nM, 1950 nM, 2860 nM and 2650 nM.
The like results for `CC(C)=CCC/C(C)=C/Cc1c(O)c(CC=C(C)C)c2c(c1O)C(=O)C1=C[C@H]3C[C@H]4C(C)(C)O[C@](C/C=C(/C)C(=O)OCCCN5CCCCC5)(C3=O)[C@]14O2` were, in that order, 2540 nM, 3590 nM, 4660 nM and 8870 nM.
With `CC(C)=CCC/C(C)=C/Cc1c(O)c(CC=C(C)C)c2c(c1O)C(=O)C1=C[C@@H]3C[C@H]4C(C)(C)O[C@@](C/C=C(/C)C(=O)OCCN5CCN(CCO)CC5)(C3=O)[C@@]14O2`, the IC50 in the test with A549 stood at 2440 nM; with HepG2 [1], 3870 nM; in test [2], 2510 nM; in the test with U-251 it was 3820 nM.
On to `CC(C)=CCC/C(C)=C/Cc1c(O)c(CC=C(C)C)c2c(c1O)C(=O)C1=C[C@@H]3C[C@@H]4C(C)(C)O[C@@](C/C=C(/C)C(=O)OCCCCN5CCN(C)CC5)(C3=O)[C@@]14O2`, for which the IC50 in the test with A549 worked out at 3230 nM; in the test with HepG2 [1], 10800 nM; in [2], 7570 nM; with U-251, 17500 nM.
With `CC(C)=CCC/C(C)=C/Cc1c(O)c(CC=C(C)C)c2c(c1O)C(=O)C1=C[C@H]3C[C@H]4C(C)(C)O[C@](C/C=C(/C)C(=O)OCCN5CCOCC5)(C3=O)[C@]14O2`, the IC50 in the test on A549 was 4270 nM; in the test on HepG2 [1], 6360 nM; in test [2], 1890 nM; with U-251, 4930 nM.
On the same counts, the results for `CCN(CC)CCCCOC(=O)/C(C)=C\C[C@]12OC(C)(C)[C@@H]3C[C@H](C=C4C(=O)c5c(O)c(C/C=C(\C)CCC=C(C)C)c(O)c(CC=C(C)C)c5O[C@@]431)C2=O` are 3180 nM, 2410 nM, 1840 nM and 4620 nM.
As for `CC(C)=CCC/C(C)=C/Cc1c(O)c(CC=C(C)C)c2c(c1O)C(=O)C1=C[C@@H]3C[C@@H]4C(C)(C)O[C@@](C/C=C(/C)C(=O)OCCCCN5CCOCC5)(C3=O)[C@@]14O2`, the IC50 in the test on A549 came out at 3170 nM; in the test on HepG2 [1], 14400 nM; in test [2], 18600 nM; with U-251, 21600 nM.
On the same counts, the results for `CC(C)=CCC/C(C)=C/Cc1c(O)c(CC=C(C)C)c2c(c1O)C(=O)C1=C[C@@H]3C[C@H]4C(C)(C)O[C@@](C/C=C(/C)C(=O)O)(C3=O)[C@@]14O2` [GAMBOGENIC ACID] are 3490 nM, 3230 nM, 4160 nM and 3220 nM.
For the compound `CC(C)=CCC/C(C)=C/Cc1c(O)c(CC=C(C)C)c2c(c1O)C(=O)C1=C[C@@H]3C[C@@H]4C(C)(C)O[C@@](C/C=C(/C)C(=O)OCCCN5CCN(C)CC5)(C3=O)[C@@]14O2`, the outcome in the test with HepG2 [3] and in the test on HepG2 [9] was Active. Moreover, the IC50 in the test with A549 was found to be 1650 nM; in the test on HepG2 [1], 980 nM; in test [2] it was 450 nM; in the test with U-251, 1130 nM. For the same compound, the Activity result in the test on HepG2 [1] was “Dose-dependent effect”; in the test on HepG2 [7] it was “tde”; in the test with HepG2 [8], “Dose-dependent effect”. Further, the Ratio in the test on HepG2 [4] is recorded as 0.598; in the test on HepG2 [5], 0.478; in the test with HepG2 [6], 0.251.
